Experimental data published in article doi:10.1101/2022.11.24.517821v4 (biorxiv, 2022).
Where two headings read alike, the source gives them in different places.

Key:
[1] = target: T1, TAS2R14 (Homo sapiens, UniProt Q9NYV8); experiment: IP-One HTRF IP1 accumulation, HEK293T with Galpha-qi5; format: cell-based
T1 sequence (Q9NYV8 1-317): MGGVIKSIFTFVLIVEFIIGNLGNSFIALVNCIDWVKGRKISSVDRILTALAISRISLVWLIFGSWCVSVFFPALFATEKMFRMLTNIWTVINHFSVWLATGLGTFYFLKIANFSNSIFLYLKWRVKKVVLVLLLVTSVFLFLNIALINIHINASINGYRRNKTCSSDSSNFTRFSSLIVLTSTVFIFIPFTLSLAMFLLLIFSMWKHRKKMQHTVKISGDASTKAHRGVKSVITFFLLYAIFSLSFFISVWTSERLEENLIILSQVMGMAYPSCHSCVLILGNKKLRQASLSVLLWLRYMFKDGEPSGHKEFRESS

[2] = target: T1, TAS2R14; experiment: as above; format: cell-based; details: antagonist mode, […] min pre-incubation, against […] flufenamic acid, […] °C
[3] = target: T1, TAS2R14; experiment: cell-based; parameters: species or system HEK293T; details: HEK-293T, read-out: Emax[%flu acid]
[4] = target: T1, TAS2R14; experiment: cell-based; parameters: species or system HEK293T

Row | SMILES | IC50 [1] [nM] | IC50 [2] | Emax [3] [%] | EC50 [4] [nM]
1 | O=C(Nc1ccccc1C(=O)O)c1ccc(OC(F)(F)F)cc1 [LF1] | 6800 ± 3200 |  |  | 
2 | Cc1[nH]nc(C(=O)Nc2ccc(C3CCC(F)(F)CC3)cc2)c1C(=O)O [LF14] | 22000 ± 16000 |  |  | 
3 | O=C(c1cc(O)cc(C(F)(F)F)c1)N1CC(c2ccccc2)C1CO (centres unmarked) [LF22] | 7200 ± 3000 |  |  | 
4 | O=C(O)c1cc(I)ccc1Nc1cccc(C(F)(F)F)c1 [LW118] |  | A derivative of flufenamic acid (LW118) |  | 
5 | NS(=O)(=O)c1ccccc1Nc1cccc(OCc2ccccc2)c1 [lw19a] |  |  | 100 | 65000 ± 25000
6 | COC(=O)c1ccccc1Nc1cccc(C(F)(F)F)c1 [lw50] |  |  | 47 ± 23 | 5300 ± 3200
7 | O=C(O)c1ccccc1Nc1cccc(OC(F)(F)F)c1 [lw057] |  |  | 101 ± 5 | 250 ± 60
8 | FC(F)(F)Oc1cccc(Nc2ccccc2-c2nnn[nH]2)c1 [lw070] |  |  | 72 ± 13 | 190 ± 70
9 | FS(F)(F)(F)(F)c1cccc(Nc2ccccc2-c2nnn[nH]2)c1 [lw071] |  |  | 48 ± 3 | 230 ± 90
10 | Clc1cccc(Nc2ccccc2-c2nnn[nH]2)c1 [lw072] |  |  | 67 ± 6 | 170 ± 70
11 | O=C(O)c1ccccc1Nc1ccc(Cl)c(C(F)(F)F)c1 [lw076] |  |  | 67 ± 9 | 200 ± 50
12 | COc1cc(Nc2ccccc2C(=O)O)cc(C(F)(F)F)c1 [lw077] |  |  | 87 ± 5 | 200 ± 60
13 | FC(F)Oc1cccc(Nc2ccccc2-c2nnn[nH]2)c1 [lw083] |  |  | 77 ± 5 | 200 ± 20
14 | FC(F)(F)c1cc(Nc2ccccc2-c2nnn[nH]2)ccc1Cl [lw084] |  |  | 59 ± 1 | 190 ± 20
15 | COc1cc(Nc2ccccc2-c2nnn[nH]2)cc(C(F)(F)F)c1 [lw085] |  |  | 98 ± 3 | 80 ± 20
16 | Cc1c(Nc2ccccc2-c2nnn[nH]2)cccc1C(F)(F)F [lw086] |  |  | 70 ± 4 | 290 ± 50
17 | O=C(O)c1ccccc1Nc1ccc(N2CCOCC2)c(C(F)(F)F)c1 [lw101] |  |  | 44 ± 5 | 2000 ± 490
18 | O=C(O)c1ccccc1Nc1cc(OC2CC2)cc(C(F)(F)F)c1 [lw103] |  |  | 64 ± 3 | 310 ± 50
19 | O=C1COc2c(cc(C(F)(F)F)cc2Nc2ccccc2C(=O)O)N1 [lw104] |  |  | 74 ± 8 | 1800 ± 180

Row | SMILES | IC50 [1] [nM] | IC50 [2] | Emax [3] [%] | EC50 [4] [nM]
20 | O=C(O)c1ccccc1Nc1cc(OCc2ccccc2)cc(C(F)(F)F)c1 [lw105] |  |  | 66 ± 14 | 1700 ± 350
21 | Cc1ccc(C(F)(F)F)cc1Nc1ccccc1-c1nnn[nH]1 [lw113] |  |  | 90 ± 5 | 310 ± 92
22 | FC(F)(F)c1cc(Nc2ccccc2-c2nnn[nH]2)ccc1N1CCOCC1 [lw114] |  |  | 50 ± 7 | 190 ± 20
23 | O=C(O)c1ccccc1Nc1cc([N+](=O)O)cc(C(F)(F)F)c1 [lw119] |  |  | 67 ± 8 | 190 ± 50
24 | Cc1cn(-c2cc(Nc3ccccc3C(=O)O)cc(C(F)(F)F)c2)cn1 [lw122] |  |  | 51 ± 11 | 3700 ± 1200
25 | COc1cc(Nc2ccc(Cl)cc2-c2nnn[nH]2)cc(C(F)(F)F)c1 [lw128] |  |  | 26 ± 4 | 580 ± 180
26 | O=[N+](O)c1cc(Nc2ccccc2-c2nnn[nH]2)cc(C(F)(F)F)c1 [lw130] |  |  | 80 ± 8 | 730 ± 150
27 | COC(=O)c1cc(Nc2ccccc2C(=O)O)cc(C(F)(F)F)c1 [lw153] |  |  | 73 ± 5 | 780 ± 250
28 | NC(=O)c1cc(Nc2ccccc2C(=O)O)cc(C(F)(F)F)c1 [lw154] |  |  | 127 ± 13 | 7200 ± 1000
29 | O=C(O)c1ccccc1Nc1cc(N2CCOCC2)cc(C(F)(F)F)c1 [lw167] |  |  | 41 ± 18 | 700 ± 400
30 | COC(=O)c1cc(Nc2ccccc2-c2nnn[nH]2)cc(C(F)(F)F)c1 [lw169] |  |  | 97 ± 4 | 640 ± 140
31 | NC(=O)c1cc(Nc2ccccc2-c2nnn[nH]2)cc(C(F)(F)F)c1 [lw183] |  |  | 86 ± 8 | 6000 ± 1300
32 | FC(F)(F)c1cc(Nc2ccccc2-c2nnn[nH]2)cc(OC2CC2)c1 [lw190] |  |  | 68 ± 4 | 430 ± 75
33 | Cc1cc(Nc2ccccc2-c2nnn[nH]2)cc(C(F)(F)F)c1 [lw201] |  |  | 81 ± 7 | 590 ± 250
34 | O=C(O)c1cc([N+](=O)[O-])ccc1Nc1cccc(C(F)(F)F)c1 [lw205] |  |  | 82 ± 4 | 270 ± 75
35 | NC(=O)c1ccccc1Nc1cccc(C(F)(F)F)c1 [lw208] |  |  | 34 ± 4 | 11000 ± 750
36 | O=Cc1ccc(Cl)cc1Nc1ccccc1C(=O)O [lw231] |  |  | 97 ± 7 | 3300 ± 460
37 | COC(=O)c1cccc(C(=O)O)c1Nc1cccc(C(F)(F)F)c1 [lw253] |  |  | 42 ± 4 | 480 ± 110
38 | O=C(O)c1ccccc1Nc1cc(C#CC2CC2)cc(C(F)(F)F)c1 [lw271] |  |  | 57 ± 7 | 460 ± 79

Row | SMILES | IC50 [1] [nM] | IC50 [2] | Emax [3] [%] | EC50 [4] [nM]
39 | CCCCc1cc2cccc(C(=O)O)c2n1-c1cccc(C(F)(F)F)c1 [lw273] |  |  | 62 ± 6 | 8300 ± 2400
40 | Oc1cc(-c2ccccc2Nc2cccc(C(F)(F)F)c2)on1 [lw306] |  |  | 38 ± 4 | 3100 ± 1800
41 | CCCCC#Cc1ccc(Nc2ccccc2C(=O)O)cc1C(F)(F)F [lw308] |  |  | 87 ± 7 | 4400 ± 1600
42 | CC#Cc1ccc(Nc2ccccc2C(=O)O)cc1C(F)(F)F [lw310] |  |  | 89 ± 3 | 380 ± 52
43 | CCCCCNC(=O)c1ccc(Nc2ccccc2C(=O)O)cc1C(F)(F)F [lw317] |  |  | 66 ± 17 | 30000 ± 19000
44 | FC(F)(F)c1cc(-c2ccccc2)nc(Nc2ccccc2-c2nnn[nH]2)n1 [lw341] |  |  | 118 ± 16 | 1100 ± 320
45 | COc1ccc(Nc2ccccc2C(=O)O)cc1OCc1ccc(Cl)cc1 [lwbk19] |  |  | 70 ± 11 | 1200 ± 300
46 | COc1ccc(Nc2ccccc2C(=O)O)cc1OCc1cccc(F)c1 [lwbk20] |  |  | 89 ± 4 | 1400 ± 500
47 | COc1cccc(COc2cc(Nc3ccccc3C(=O)O)ccc2OC)c1 [lwbk21] |  |  | 88 ± 10 | 2100 ± 1100
48 | O=C(O)c1ccccc1Nc1cc(C(F)(F)F)cc(C(F)(F)F)c1Cl [lwjk05] |  |  | 84 ± 1 | 150 ± 20
49 | FC(F)(F)c1cc(Nc2ccccc2-c2nnn[nH]2)c(Cl)c(C(F)(F)F)c1 [lwjk06] |  |  | 97 ± 8 | 170 ± 20
50 | Cc1ccc(Nc2ccccc2C(=O)O)cc1OCc1ccc(Cl)cc1 [lwlb17] |  |  | 70 ± 10 | 1300 ± 180
51 | COc1cccc(COc2cc(Nc3ccccc3C(=O)O)ccc2C)c1 [lwlb18] |  |  | 54 ± 14 | 1500 ± 500
52 | Cc1ccc(Nc2ccccc2C(=O)O)cc1OCc1cccc(F)c1 [lwlb19] |  |  | 70 ± 6 | 1900 ± 940
53 | O=C(O)c1ccccc1Nc1cccc(OCc2ccc(Cl)cc2)c1 [lwmr04] |  |  | 64 ± 2 | 1100 ± 180
54 | COc1cccc(COc2cccc(Nc3ccccc3C(=O)O)c2)c1 [lwmr05] |  |  | 70 ± 6 | 740 ± 120
55 | O=C(O)c1ccccc1Nc1cccc(OCc2cccc(F)c2)c1 [lwmr06] |  |  | 71 ± 4 | 420 ± 50
56 | FC(F)(F)c1cccc(Nc2ccccc2-c2cnoc2)c1 [lwph005] |  |  | 50 ± 1 | 12000 ± 8900
57 | FC(F)(F)c1cccc(Nc2ccccc2-c2cnn[nH]2)c1 [lwtp009] |  |  | 48 ± 1 | 12000 ± 1400
